Entries after “also recorded” stand apart in the source; their conditions may differ.
Experiments:
[1] = system: PC3; experiment: XTT viability assay, PC3; type: cell-based; settings: Homo sapiens, PC-3, Prostate Cancer
From the text: Cells and culture conditions. Primary astrocytes (Lonza, Walkersville, Md.; ABM™ Basal Media with AGM™ SingleQuots™ Supplement Pack), fibroblast (ATCC; Fibroblast Basal Medium (ATCC© PCS-201-030™) with Fibroblast Growth Kit-Serum-free (ATCC© PCS-201-040™)), airway epithelial cell (ATCC; Airway Epithelial Cell Basal Medium (ATCC© PCS-300-030™) with Bronchial Epithelial Cell Growth Kit (ATCC© PCS-300-040™)), renal proximal tubule (ATCC; Renal Epithelial Cell Basal Medium (ATCC© PCS-400-030™) with Renal Epithelial Cell Growth Kit (ATCC© PCS-400-040™)), prostate epithelial cell (Lonza; PrEGM™ BulletKit™) and mammary epithelial cell (Lonza; MEBM™ BulletKit™) were kept in a humidified incubator at 37° C. adjusted to 5% CO2. […]
XTT assay. […] Cell viability was measured using the R&D Systemsm TACS XTT Cell Proliferation/Viability Assay (R&D Systems, Minneapolis, Minn.).

[2] = Stability of glutriptolides in human serum (HPLC-MS); type: in vitro ADME; settings: incubation for up to 72 h
Protocol: Stability of glutriptolides in human serum. Human serum (Sigma, 10% in DMEM media) was treated with 10 μM drug (triptolide or glutriptolides) at room temperature for various time points. The incubation was stopped by placing samples on dry ice followed by overnight storage in −80° C. Frozen samples were then lyophilized and reconstituted in DMSO at room temperature for an hour. Samples were centrifuged at 12,000 RPM for 10 minutes and supernatants loaded into an HPLC-MS with the following conditions: (Varian pursuit XR5 Diphenyl 150×4.6 mm; A phase: Millipore water with 0.1% HCOOH; B phase: Acetonitrile with 0.1% HCOOH; 0-6 min: […]; 6-24 min: 5% B-100% B; 24-28 min: 100% B; 28-29 min: 100% B5% B; 29-30 min: 5% B).

[3] = system: DLD-1 WT cells; experiment: DLD-1 WT proliferation under hypoxia or normoxia; type: cell-based; settings: Homo sapiens; WT DLD-1 cells, hypoxic conditions (1% oxygen)
[4] = system: HepG2; experiment: HepG2 proliferation under hypoxia ([3H]-thymidine incorporation); type: cell-based, human; settings: HepG2, 1% O2, 48 h post treatment
[5] = target: T1, TFIIH (Homo sapiens, UniProt P19447); experiment: DNA-dependent ATPase activity assay of TFIIH; type: biochemical
T1 construct: made in house
Protocol: ATPase activity assay. The TFIIH complex was purified and its DNA-dependent ATPase assay was performed as previously described (Titov et al. (2011) Nat. Chem. Biol. 7:182-88). Briefly, a 10-μl reaction mixture contained 20 mM Tris (pH 7.9), 4 mM MgCl2, 1 μM of ATP, 0.1 μCi [^γ-^32P]ATP (3000 Ci/mmol), 100 μg/ml BSA, 100 nM RNA Polymerase II promoter positive control DNA, 1 nM TFIIH and indicated concentrations of triptolide or its analogs. The reactions were started by either addition of TFIIH for 2 hr and stopped by addition of 2 μl of 0.5 M EDTA. An aliquot of 1 μl reaction mixture was spotted on PEI-cellulose (sigma) and the chromatogram was developed with 0.5 M LiCi and 1 M HCOOH. The percent of ATP hydrolysis was quantified using a Typhoon FLA 9500 Variable Imager (GE Healthcare).

[6] = system: MDA MB231 cells; experiment: MDA MB231 proliferation under hypoxia ([3H]-thymidine incorporation); type: cell-based, human; settings: MDA MB231, 1% O2, 48 h post treatment
[7] = system: MCF-7; experiment: MCF-7 proliferation under hypoxia ([3H]-thymidine incorporation); type: cell-based, human; settings: MCF-7, 1% O2, 48 h post treatment
[8] = system: DLD-1 GLUT1 knockout (GLUT1 KO) cells; experiment: DLD-1 GLUT1 knockout proliferation under hypoxia or normoxia; type: cell-based, human

SMILES | IC50 [1] [nM] | stability in human serum [2] | IC50 [3] [nM] | effect of hypoxia on anti-proliferative effect [4] | inhibition of ATPase activity of TFIIH [5] | effect of hypoxia on anti-proliferative effect [6] | effect of hypoxia on anti-proliferative effect [7] | IC50 ([8]; Homo sapiens, DLD-1, GLUT1 knockout cell line, hypoxic conditions (1% oxygen)) [nM] | difference in sensitivity between DLD-1 WT and GLUT1 KO ([8]; normoxia (20% oxygen))
CC(C)[C@]12O[C@H]1[C@@H]1O[C@]13[C@]1(O[C@H]1C[C@H]1C4=C(CC[C@@]13C)C(=O)OC4)[C@@H]2OC(=O)CCC(=O)O[C@@H]1OC(CO)[C@@H](O)C(O)C1O (stereo partly drawn) [Compound 10] | 500 ± 100 | – | – | – | – | – | – | – | –
CC(C)[C@]12O[C@H]1[C@@H]1O[C@]13[C@]1(O[C@H]1C[C@H]1C4=C(CC[C@@]13C)C(=O)OC4)[C@@H]2OC(=O)CCCO[C@@H]1OC(CO)[C@@H](O)C(O)C1O (stereo in doubt) [Compound 1] | – | remained largely intact | 1300 | resistance; also recorded: remains resistant | only a small fraction of the activity was affected; also recorded: does not inhibit | enhances the anti-proliferative effect | modest enhancement | 2500 | no difference in sensitivity
